Reference: patent publication US20230117034A1, “PYRAZOLOTRIAZINES” (Bayer Aktiengesellschaft, priority 2019, published 2023)

What was measured:
CDK12/CycK = CDK12/CycK (Homo sapiens, UniProt Q9NYV4); assay: CDK12/CycK high ATP kinase assay (TR-FRET, 2 mM ATP); assay type: biochemical; settings: 2 mM ATP (high ATP); median; read-out: CDK12/CyclinK, 2 mM ATP (high ATP), IC50-[mol/l] (median)
Summary of the method: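 Read-out is TR-FRET (Eu-anti-rabbit IgG, anti-phospho-c-Myc Ser62 antibody, streptavidin-XL665) after EDTA stop. Reaction ran 60 min at 22 °C using 1 µM biotin-peptide and high ATP (2 mM) with roughly 0.75 nM recombinant CDK12/CycK, after 15 min compound pre-binding; normalised emission ratios yield IC50.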

CDK2/CycE = target: T1, CDK2/CycE (Homo sapiens, UniProt P24941); assay: CDK2/CycE kinase assay (TR-FRET, 2 mM ATP); assay type: biochemical; settings: 2 mM ATP (high ATP); median; read-out: CDK2/CyclinE, 2 mM ATP (high ATP), IC50 (median)
T1 construct: purchased ProQinase GmbH (Freiburg, Germany); host or cells: insect cells (Sf9)
Summary of the method: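 Biotin-peptide phosphorylation (0.75 µM substrate, 2 mM ATP final, 25 min, 22 °C) by Sf9-expressed GST-CDK2/GST-CycE, after a 15-min compound pre-binding step. Inhibition scaled between enzyme-free (100%) and uninhibited (0%) wells.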

Sequence of CDK12/CycK (Q9NYV4 with tags, fused parts or gaps): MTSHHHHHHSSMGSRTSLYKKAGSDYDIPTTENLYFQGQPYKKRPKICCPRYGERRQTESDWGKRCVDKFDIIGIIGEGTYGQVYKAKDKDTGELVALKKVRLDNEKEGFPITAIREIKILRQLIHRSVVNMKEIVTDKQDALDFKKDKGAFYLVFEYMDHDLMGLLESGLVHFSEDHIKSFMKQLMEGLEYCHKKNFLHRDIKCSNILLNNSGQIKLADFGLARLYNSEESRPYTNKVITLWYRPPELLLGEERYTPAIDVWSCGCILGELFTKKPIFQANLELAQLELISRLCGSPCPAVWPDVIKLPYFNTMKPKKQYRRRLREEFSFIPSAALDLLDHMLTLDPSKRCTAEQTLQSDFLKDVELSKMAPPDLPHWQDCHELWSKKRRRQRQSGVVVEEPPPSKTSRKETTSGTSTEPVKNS
Sequence of CDK12/CycK (O75909 1-300 partner limits assumed): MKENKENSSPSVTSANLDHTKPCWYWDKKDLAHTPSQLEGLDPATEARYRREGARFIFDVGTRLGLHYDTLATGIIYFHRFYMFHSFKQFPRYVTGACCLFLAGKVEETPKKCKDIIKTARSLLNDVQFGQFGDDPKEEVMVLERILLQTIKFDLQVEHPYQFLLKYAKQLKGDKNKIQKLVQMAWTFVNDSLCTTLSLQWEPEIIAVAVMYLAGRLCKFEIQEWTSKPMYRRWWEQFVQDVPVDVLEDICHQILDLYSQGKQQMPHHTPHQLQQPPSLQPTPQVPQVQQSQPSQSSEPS

Compound | IC50 (CDK12/CycK) | IC50 (CDK2/CycE)
Fc1cccc2[nH]c(CNc3nc(N4CCOCC4)nc4c(C5CC5)cnn34)nc12 [Example 188, 8-cyclopropyl-N-[(4-fluoro-1H-benzimidazol-2-yl)methyl]-2-(morpholin-4-yl)pyrazolo[1,5-a][1,3,5]triazin-4-amine] | 0.581 µM | 15 µM
C[C@@H]1CN(c2nc(NCc3nc4c(F)c(F)ccc4[nH]3)n3ncc(C4CC4)c3n2)C[C@H](C)N1 [Example 170, 8-cyclopropyl-N-[(4,5-difluoro-1H-benzimidazol-2-yl)methyl]-2-[(3R,5S)-3,5-dimethylpiperazin-1-yl]pyrazolo[1,5-a][1,3,5]triazin-4-amine] | 3.04 µM | > 20 µM
OC[C@@H]1CCCCN1c1nc(NCc2nc3c(F)cccc3[nH]2)n2ncc(C3CC3)c2n1 [Example 189, [(2S)-1-(8-cyclopropyl-4-{[(4-fluoro-1H-benzimidazol-2-yl)methyl]amino}pyrazolo[1,5-a][1,3,5]triazin-2-yl)piperidin-2-yl]methanol] | 0.0109 µM | 0.761 µM
O=C1CN(c2nc(NCc3nc4ccccc4[nH]3)n3ncc(Br)c3n2)CCN1 [Example 167, 4-(4-{[(1H-benzimidazol-2-yl)methyl]amino}-8-bromopyrazolo[1,5-a][1,3,5]triazin-2-yl)piperazin-2-one] | 7.12 µM | 15.9 µM
CN(C)C1CCN(c2nc(NCc3nc4ccccc4[nH]3)n3ncc(Br)c3n2)CC1 [Example 201, N-[(1H-benzimidazol-2-yl)methyl]-8-bromo-2-[4-(dimethylamino)piperidin-1-yl]pyrazolo[1,5-a][1,3,5]triazin-4-amine] | > 20 µM | > 20 µM
CN(C)[C@H]1CCN(c2nc(NCc3nc4ccccc4[nH]3)n3ncc(Br)c3n2)C1 [Example 177, N-[(1H-benzimidazol-2-yl)methyl]-8-bromo-2-[(3S)-3-(dimethylamino)pyrrolidin-1-yl]pyrazolo[1,5-a][1,3,5]triazin-4-amine] | > 20 µM | > 20 µM
C[C@H]1CN(c2nc(NCc3nc4ccccc4[nH]3)n3ncc(Br)c3n2)CCN1 [Example 169, N-[(1H-benzimidazol-2-yl)methyl]-8-bromo-2-[(3S)-3-methylpiperazin-1-yl]pyrazolo[1,5-a][1,3,5]triazin-4-amine] | 13.7 µM | 13.3 µM
CN1CCN(c2nc(NCc3nc4ccccc4[nH]3)n3ncc(-c4ccncc4)c3n2)CC1 [Example 242, N-[(1H-benzimidazol-2-yl)methyl]-2-(4-methylpiperazin-1-yl)-8-(pyridin-4-yl)pyrazolo[1,5-a][1,3,5]triazin-4-amine] | > 20 µM | > 20 µM
CN1CC2CCC(C1)N2c1nc(NCc2nc3ccccc3[nH]2)n2ncc(Br)c2n1 [Example 226, N-(1H-benzimidazol-2-ylmethyl)-8-bromo-2-(3-methyl-3,8-diazabicyclo[3.2.1]octan-8-yl)pyrazolo[1,5-a][1,3,5]triazin-4-amine] | > 20 µM | > 20 µM
CN1CCCC2CN(c3nc(NCc4nc5ccccc5[nH]4)n4ncc(Br)c4n3)CC21 (centres unmarked) [Example 231, N-[(1H-benzimidazol-2-yl)methyl]-8-bromo-2-(1-methyloctahydro-6H-pyrrolo[3,4-b]pyridin-6-yl)pyrazolo[1,5-a][1,3,5]triazin-4-amine] | > 20 µM | 12.4 µM
CN(CC(C)(C)O)c1nc(NCc2nc3ccccc3[nH]2)n2ncc(Br)c2n1 [Example 238, 1-[(4-{[(1H-benzimidazol-2-yl)methyl]amino}-8-bromopyrazolo[1,5-a][1,3,5]triazin-2-yl)(methyl)amino]-2-methylpropan-2-ol] | 1.79 µM | 1.86 µM
Cc1ccc2[nH]c(CNc3nc(N4CCOCC4)nc4c(C5CC5)cnn34)nc2c1 [Example 193, 8-cyclopropyl-N-[(5-methyl-1H-benzimidazol-2-yl)methyl]-2-(morpholin-4-yl)pyrazolo[1,5-a][1,3,5]triazin-4-amine] | 1.75 µM | 10.8 µM
CCN(C)c1nc(NCc2nc3ccccc3[nH]2)n2ncc(Br)c2n1 [Example 233, N4-(1H-benzimidazol-2-ylmethyl)-8-bromo-N2-ethyl-N2-methyl-pyrazolo[1,5-a][1,3,5]triazine-2,4-diamine] | 7.54 µM | 5.35 µM
Brc1cnn2c(NCc3nc4ccccc4[nH]3)nc(N3CC4CCC3CN4)nc12 (centres unmarked) [Example 220, N-(1H-benzimidazol-2-ylmethyl)-8-bromo-2-(2,5-diazabicyclo[2.2.2]octan-2-yl)pyrazolo[1,5-a][1,3,5]triazin-4-amine] | 5.55 µM | 0.908 µM
Brc1cnn2c(NCc3nc4ccccc4[nH]3)nc(N3CCNC4(CC4)C3)nc12 [Example 176, N-[(1H-benzimidazol-2-yl)methyl]-8-bromo-2-(4,7-diazaspiro[2.5]octan-7-yl)pyrazolo[1,5-a][1,3,5]triazin-4-amine] | 2.33 µM | 8.6 µM
COC(C)(C)CNc1nc(NCc2nc3ccccc3[nH]2)n2ncc(Br)c2n1 [Example 236, N4-(1H-benzimidazol-2-ylmethyl)-8-bromo-N2-(2-methoxy-2-methyl-propyl)pyrazolo[1,5-a][1,3,5]triazine-2,4-diamine] | > 17.9 µM | 12.8 µM
CN1CC[C@H]2CN(c3nc(NCc4nc5ccccc5[nH]4)n4ncc(Br)c4n3)C[C@H]21 [Example 179, N-[(1H-benzimidazol-2-yl)methyl]-8-bromo-2-[(3aS,6aS)-1-methylhexahydropyrrolo[3,4-b]pyrrol-5 (1H)-yl]pyrazolo[1,5-a][1,3,5]triazin-4-amine] | > 20 µM | > 20 µM
CN1C[C@@H]2C[C@H]1CN2c1nc(NCc2nc3ccccc3[nH]2)n2ncc(Br)c2n1 [Example 219, N-[(1H-benzimidazol-2-yl)methyl]-8-bromo-2-[(1S,4S)-5-methyl-2,5-diazabicyclo[2.2.1]heptan-2-yl]pyrazolo[1,5-a][1,3,5]triazin-4-amine] | > 20 µM | > 20 µM
COc1cccc2[nH]c(CNc3nc(N4CCNCC4)nc4c(C5CC5)cnn34)nc12 [Example 211, 8-cyclopropyl-N-[(4-methoxy-1H-benzimidazol-2-yl)methyl]-2-(piperazin-1-yl)pyrazolo[1,5-a][1,3,5]triazin-4-amine] | 2.74 µM | 8.56 µM
CO[C@@H]1CCN(c2nc(NCc3nc4ccccc4[nH]3)n3ncc(Br)c3n2)C1 [Example 223, N-[(1H-benzimidazol-2-yl)methyl]-8-bromo-2-[(3R)-3-methoxypyrrolidin-1-yl]pyrazolo[1,5-a][1,3,5]triazin-4-amine] | > 16.5 µM | 14.4 µM
OC1CCCN(c2nc(NCc3nc4ccccc4[nH]3)n3ncc(Br)c3n2)C1 (racemic) [Example 16, (rac)-1-(4-{[(1H-benzimidazol-2-yl)methyl]amino}-8-bromopyrazolo[1,5-a][1,3,5]triazin-2-yl)piperidin-3-ol] | 6.94 µM | 1.5 µM
Cc1ccc2[nH]c(CNc3nc(N4C[C@@H](C)N[C@@H](C)C4)nc4c(C5CC5)cnn34)nc2c1 [Example 194, 8-cyclopropyl-2-[(3R,5S)-3,5-dimethylpiperazin-1-yl]-N-[(5-methyl-1H-benzimidazol-2-yl)methyl]pyrazolo[1,5-a][1,3,5]triazin-4-amine] | 3.7 µM | > 20 µM
Fc1ccc2[nH]c(CNc3nc(N4C[C@@H]5CCCN[C@@H]5C4)nc4c(C5CC5)cnn34)nc2c1 [Example 180, 8-cyclopropyl-N-[(5-fluoro-1H-benzimidazol-2-yl)methyl]-2-[(4aS, 7aS)-octahydro-6H-pyrrolo[3,4-b]pyridin-6-yl]pyrazolo[1,5-a][1,3,5]triazin-4-amine] | 17.3 µM | > 20 µM
CC(C)c1cnn2c(NCc3nc4ccccc4[nH]3)nc(Nc3ccccc3)nc12 [Example 13, N^4-[(1H-benzimidazol-2-yl)methyl]-N^2-phenyl-8-(propan-2-yl)pyrazolo[1,5-a][1,3,5]triazine-2,4-diamine] | > 20 µM | > 20 µM
FC(F)(F)c1cnn2c(NCc3nc4ccccc4[nH]3)nc(N3CCOCC3)nc12 [Example 241, N-[(1H-benzimidazol-2-yl)methyl]-2-(morpholin-4-yl)-8-(trifluoromethyl) pyrazolo[1,5-a][1,3,5]triazin-4-amine] | 0.805 µM | 12 µM
Cc1ccc2[nH]c(CNc3nc(N4C[C@@H]5CCCN[C@@H]5C4)nc4c(C5CC5)cnn34)nc2c1 [Example 195, 8-cyclopropyl-N-[(5-methyl-1H-benzimidazol-2-yl)methyl]-2-[(4aS,7aS)-octahydro-6H-pyrrolo[3,4-b]pyridin-6-yl]pyrazolo[1,5-a][1,3,5]triazin-4-amine] | 8.23 µM | > 20 µM
COCCNc1nc(NCc2nc3ccccc3[nH]2)n2ncc(Br)c2n1 [Example 230, N4-(1H-benzimidazol-2-ylmethyl)-8-bromo-N2-(2-methoxyethyl)pyrazolo[1,5-a][1,3,5]triazine-2,4-diamine] | > 20 µM | 10.1 µM
CN(C)[C@@H]1CCN(c2nc(NCc3nc4ccccc4[nH]3)n3ncc(Br)c3n2)C1 [Example 178, N-[(1H-benzimidazol-2-yl)methyl]-8-bromo-2-[(3R)-3-(dimethylamino)pyrrolidin-1-yl]pyrazolo[1,5-a][1,3,5]triazin-4-amine] | > 20 µM | > 20 µM
